Test results from paper PMC12146338, “Bioanalytical assay for the quantification of rucaparib in rat plasma using UPLC-MS/MS: development, and validation for interaction with myricetin” (Frontiers in Pharmacology, 2025).

How the values were obtained:
[1] = Drug-drug interaction (DDI) pharmacokinetic study of rucaparib with or without myricetin in rats
Protocol: Twelve Sprague-Dawley (SD) male rats were provided with an appropriate environment with unrestricted water and food for seven consecutive days prior to the experiment. The day prior to the study, the rats underwent a 12-h period of fasting while being allowed unfettered access to water. Subsequently, they were randomly assigned to two groups (n = 6). Group A was received an oral dose of rucaparib at 20 mg/kg, while Group B was received an oral administration of rucaparib at 20 mg/kg along with myricetin at 50 mg/kg. The doses of rucaparib ([Augustine et al., 2019]) and myricetin ([Ye et al., 2024]) administered were determined based on prior literatures. Rucaparib was formulated in corn oil with myricetin prepared in 0.5% carboxymethylcellulose sodium (CMC-Na) solution. Group B rats were administered a single gavage of 50 mg/kg of myricetin, while Group A rats were received an equivalent volume of CMC-Na solution. Subsequently, at the 30 min mark, both groups were administered a single dose of 20 mg/kg of rucaparib. Before dosing (designated as 0 h) and at 1.5, 3, 4, 5, 6, 8, 12, 24 and 36 h post-dosing, 0.3 mL of plasma samples were drawn from the caudal vein. These samples were collected into heparin-containing tubes and then centrifuged at 8,000 rpm at 4°C for 10 min. Afterwards, the plasma was transferred to new tubes and preserved at −80°C for further analysis.
The DAS 3.0 software was used to calculate the pharmacokinetic parameters of rucaparib using a non-compartmental model. The key pharmacokinetic parameters of the two groups were analyzed using an independent samples t-test in SPSS 24.0. The p-value of less than 0.05 indicated a significant difference between the two groups. Mean plasma concentration-time curves were generated with GraphPad Prism 9.0 software (GraphPad Software Inc., California, United States).

[2] = Stability of rucaparib in rat plasma under different storage conditions (UPLC-MS/MS); format: in vitro ADME; conditions: n = 5
Protocol: The stability experiment was conducted at three different QCs (5.0, 200, and 400 ng/mL). It was carried out under various storage conditions, with each condition having five replicates (n = 5). These storage conditions encompassed stability within the analyzer (lasting for 4 h at 10°C), long-term storage (for 3 weeks at −80°C), short-term storage (for 3 h at room temperature) and freeze-thaw cycles (conducted three times).
The stability of rucaparib in rat plasma was examined under four distinct storage conditions. These included short-term storage (lasting 3 h at room temperature), exposure to three freeze-thaw cycles (transitioning from −80°C to room temperature), long-term storage (at −80°C for 21 days), and a 4 h placement in an autosampler maintained at 10°C.

CYP2D6 = test system: CYP2D6; design: method as in Lee et al., 2012; conditions: ref Lee et al., 2012; read-out: half-maximal inhibitory concentrations value, CYP2D6 metabolism; cited from earlier work
[3] = design: method as in Ross and Kasum, 2002; conditions: ref Ross and Kasum, 2002; cited from earlier work
[4] = male, Sprague-Dawley, rat, in vivo, po, 20 mg/kg

## CNCc1ccc(-c2[nH]c3cc(F)cc4c3c2CCNC4=O)cc1 [Rucaparib]
[1]; [4]
  AUC(0-inf): 1320 ng·h/mL
  AUC(0-t): 1220 ng·h/mL
  CL/F: 294 mL/min/kg
  Cmax: 126 ± 58.5 ng/mL
  Tmax: 4.25 ± 1.78 h
  half-life: 10.9 ± 3.41 h
[2]; added 5.0 ng/mL, Autosampler 10°C, 4 h
  Stability RE (%): 1.5%
[2]; added 5.0 ng/mL, Room temperature, 3 h
  Stability RE (%): −4.2%
[2]; added 5.0 ng/mL, Three freeze-thaw
  Stability RE (%): −10.1%
[2]; added 5.0 ng/mL, −80°C, 3 weeks
  Stability RE (%): 5.7%
[2]; added 200 ng/mL, Autosampler 10°C, 4 h
  Stability RE (%): 1.4%
[2]; added 200 ng/mL, Room temperature, 3 h
  Stability RE (%): −11.5%
[2]; added 200 ng/mL, Three freeze-thaw
  Stability RE (%): −1.6%
[2]; added 200 ng/mL, −80°C, 3 weeks
  Stability RE (%): 9.2%
[2]; added 400 ng/mL, Autosampler 10°C, 4 h
  Stability RE (%): 8.1%
[2]; added 400 ng/mL, Room temperature, 3 h
  Stability RE (%): −3.1%
[2]; added 400 ng/mL, Three freeze-thaw
  Stability RE (%): −11.6%
[2]; added 400 ng/mL, −80°C, 3 weeks
  Stability RE (%): 1.4%

## O=c1c(O)c(-c2cc(O)c(O)c(O)c2)oc2cc(O)cc(O)c12 [myricetin]
[1]; rats, 50 mg/kg myricetin + 20 mg/kg rucaparib vs rucaparib alone, independent samples t-test, p < 0.05
  effect on plasma exposure to rucaparib: no significant effect
CYP2D6
  IC50: 57 µM
[3]
  bioavailability: low bioavailability
